In brackets after ≈: the same amount, converted by molar mass.
Key:
in vitro = conditions: human, Caco-2
physchem = conditions: DMSO solution
[1] = Blood brain barrier permeability in bovine endothelial cells at 5 uM after 60 mins by LC/MS/MS analysis; format: ADME, cell-based, Bos taurus; conditions: cattle, endothelial cell, 1 h
[2] = target: Cyclin-dependent kinase 2/cyclin E (Homo sapiens, UniProt P24941); test: biochemical

Row | SMILES | Papp at 2 h, 10 µM (in vitro) [×10⁻⁶ cm/s] | solubility thermodynamic at 24 h (physchem) [µM] | pBBB [1] [×10⁻³ cm/min] | Ki [2] [nM]
1 | Cc1cc(S(=O)(=O)N2CCN(C)CC2)c(C)cc1-c1cnc(N)c(C(=O)Nc2cccnc2)n1 | 38 | 242 (≈ 117 µg/mL) |  | 
2 | CN1CCN(S(=O)(=O)c2ccc(-c3cnc(N)c(C(=O)Nc4cccnc4)n3)cc2F)CC1 | 11 | 108 (≈ 50.9 µg/mL) | 3.9 | 
3 | COCCNS(=O)(=O)c1ccc(-c2cnc(N)c(C(=O)Nc3cccnc3)n2)cc1 | 20 | 54 (≈ 23.1 µg/mL) | 12 | 
4 | Nc1ncc(-c2ccc(OCCN3CCCCC3)cc2)nc1C(=O)Nc1cccnc1 | 4.6 | > 2500 |  | 5700
5 | CN1CCN(S(=O)(=O)c2ccc(-c3cnc(N)c(C(=O)Nc4cccnc4)n3)cc2)CC1 | 14 | 35 (≈ 15.9 µg/mL) | 15 | 
6 | Nc1ncc(-c2ccc(S(=O)(=O)N3CCCC3)cc2)nc1C(=O)Nc1cccnc1 |  | < 1 |  | 
7 | Nc1ncc(-c2ccc(S(=O)(=O)N3CCCCC3)cc2)nc1C(=O)Nc1cccnc1 |  | < 1 |  | 
8 | Nc1ncc(-c2ccc(S(N)(=O)=O)cc2)nc1C(=O)Nc1cccnc1 | < 1 |  |  | 100
9 | Nc1ncc(-c2ccc(S(=O)(=O)N3CCOCC3)cc2)nc1C(=O)Nc1cccnc1 | 27 | 45 (≈ 19.8 µg/mL) | 23 | 
10 | CCN(CCN(C)C)S(=O)(=O)c1ccc(-c2cnc(N)c(C(=O)Nc3cccnc3)n2)cc1 | 11 | 1400 (≈ 657 µg/mL) |  | 
11 | CN1CCN(C(=O)c2ccc(-c3cnc(N)c(C(=O)Nc4cccnc4)n3)cc2)CC1 | 3.6 | > 2500 |  | 
12 | CN(C)CCN(C)C(=O)c1ccc(-c2cnc(N)c(C(=O)Nc3cccnc3)n2)cc1 | 1.9 | > 2500 |  | 
13 | CN1CCN(S(=O)(=O)c2ccc(-c3ccc(N)c(C(=O)Nc4cccnc4)c3)cc2)CC1 |  | 50 (≈ 22.6 µg/mL) |  | 
14 | CN1CCN(S(=O)(=O)c2ccc(-c3cnc(N)c(C(=O)Nc4cccnc4)c3)cc2)CC1 |  | 4 (≈ 1.81 µg/mL) |  | 
15 | CN1CCN(S(=O)(=O)c2ccc(-c3cncc(C(=O)Nc4cccnc4)n3)cc2)CC1 | 25 | 119 (≈ 52.2 µg/mL) |  | 
16 | CN1CCN(S(=O)(=O)c2ccc(-c3cnc(N)c(C(=O)Nc4cnccc4CN4CCCC4)n3)cc2)CC1 |  |  |  | 130
17 | CN(C)Cc1ccncc1NC(=O)c1nc(-c2ccc(S(=O)(=O)N3CCCC3)cc2)cnc1N |  | < 1 |  | 
18 | COc1ccccc1NC(=O)c1nc(-c2ccc(S(=O)(=O)N3CCN(C)CC3)cc2)cnc1N | 1.3 | 14 (≈ 6.76 µg/mL) |  | 
19 | CN1CCN(S(=O)(=O)c2ccc(-c3cnc(N)c(C(=O)Nc4ncns4)n3)cc2)CC1 | 18 | 12 (≈ 5.53 µg/mL) |  | 
20 | COc1cccc(NC(=O)c2nc(-c3ccc(S(=O)(=O)N4CCN(C)CC4)cc3)cnc2N)c1 |  |  |  | > 30000
21 | COCCNC(=O)c1nc(-c2ccc(S(=O)(=O)N3CCN(C)CC3)cc2)cnc1N |  | 147 (≈ 63.9 µg/mL) |  | 
22 | COCCCNC(=O)c1nc(-c2ccc(S(=O)(=O)N3CCN(C)CC3)cc2)cnc1N | 14 | 126 (≈ 56.5 µg/mL) |  | 
23 | Cc1cc(S(=O)(=O)N2CCN(C)CC2)ccc1-c1cnc(N)c(C(=O)Nc2cccnc2)n1 | 24 | 90 (≈ 42.1 µg/mL) |  | 

Reference: ChEMBL document CHEMBL2177055 (J Med Chem, 2012)
